Drawing on patent publication EP0768085A1, “ANTIBACTERIAL AGENT” (DAIICHI PHARMACEUTICAL CO., LTD., priority 1994, dated 1996), this text covers LD50 and MIC for one molecule.

In brackets after ≈: the same amount, converted by molar mass. Like-named read-outs stand apart in the source and are kept apart here.

One data set in a line: in vivo. To be noted: mouse, oral administration, single dose, suspended in aqueous 0.5% CMC solution, male mice, observed for 14 days. As to the method:
Acute toxicity (LD50) of a ketonitrile derivative of the present invention (Compound No. 4) was tested using male mice (Slc:ddY, 5 weeks old). To groups of each 5 mice, the compounds suspended in aqueous 0.5% CMC solution were forcibly dosed orally at a single time so that the final dosages of 707, 1,000, 1,414, and 2,000 mg/kg were attained. […] As a result, LD50 value under conditions of oral administration was estimated to be higher than 2,000 mg/kg. Thus, the compound was confirmed to be quite non-toxic.
To groups of each 5 mice, the compounds suspended in aqueous 0.5% CMC solution were forcibly dosed orally at a single time so that the final dosages of 500, 1,000, 1,500, and 2,000 mg/kg were attained. […] As a result, the LD50 value was estimated to be higher than 2,000 mg/kg. Thus, the compounds were confirmed to be quite non-toxic.

For data set [1], the system named is Staphylococcus aureus 209-P. In words: Antibacterial activity (IC), Mueller-Hinton broth, 96-well microplate (Example 4, Table 39). To be noted: 37°C, 18 hours. It is filed as cell-based. The gist of the method:
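S. aureus 209-P at 10^6 CFU/ml in Mueller-Hinton broth, compound (DMSO/water) at final 100, 10 and 1 µg/ml, 18 h at 37°C. Growth inhibition scored by turbidity; IC reported as ≤100, ≤10 or ≤1 µg/ml bands.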

For data set [2], the system named is Staphylococcus aureus TI-1. In words: Antibacterial activity (IC), broth microplate as in Example 4 (Example 5, Table 40). To be noted: TI1, 18 h. It is filed as cell-based. The procedure, abridged:
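S. aureus TI-1 at 10^6 CFU/ml in Mueller-Hinton broth exposed to compound at final 100, 10 and 1 µg/ml (DMSO/water stock), 37 °C for 18 h. Growth inhibition judged by turbidity; IC reported as ≤100, ≤10 or ≤1 µg/ml bands.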

Data set [3] has as its system Pasteurella multocida (Kobe-6). Briefly: Antibacterial activity (IC), broth microplate as in Example 4 (Example 6, Table 41). It is filed as cell-based. To be noted: 18 h, origin pig. Here is the method: A suitable amount of a sample was dissolved in dimethylsulfoxide (DMSO), and the resultant solution was diluted with the same amount of sterilized distilled water to prepare a bulk sample of 1,000 µg/ml. Mueller-Hinton broth (product of DIFCO) was dispensed into each well of 96-well microplate. Thereafter, the bulk specimen was added to the first well of a row, and successively diluted (10-fold each time) with sterilized distilled water. Separately, a bacterial cell suspension for the test (Staphylococcus aureus 209-P) which had been cultured in the above-mentioned broth overnight at 37°C was inoculated to each well so that the final inoculation amount of 10^6 CFU/ml was attained. The final concentrations of the samples were 100, 10, and 1 µg/ml.
The antibacterial action was evaluated by the inhibitory concentration (hereinafter abbreviated as IC) at which propagation of the bacteria cultured at 37°C for 18 hours was inhibited. Inhibition was determined by the turbidity of the medium. The expressions "IC≤100", "≤10", and "≤1" indicate that MIC-equivalent values obtained at the succesive […] dilution of the sample are 100-10 µg/ml, 10-1 µg/ml, and not more than 1 µg/ml, respectively. […] (In the subsequent Examples, the same rule applies correspondingly.) Table 39
In a manner similar to that described in Example 4, antibacterial activity of the invention compound was determined. The bacterium used for the test was Pasteurella Kobe-6 (origin: pig; Pasteurella multocida).

A further data set relates to Pasteurella from cattle. In words: MIC by agar plate dilution method (Example 9, Table 44). It is filed as cell-based. The note with it: 18 h. As to the method: (§1) Through use of a ketonitrile derivative of the present invention (Compound No. 4) as a sample, minimum inhibitory concentrations (MIC) of Staphylococcus aureus and Pasteurella from cattle were determined by an agar plate dilution method in accordance with the standard procedure authorized by Japan Chemotherapy Association ["Chemotherapy", 29, 76-79, 1981, under the heading "Revised Measurement of Minimum Inhibitory Concentration (MIC)"]. The samples were dissolved in dimethylsulfoxide and diluted with the same amount of sterilized distilled water to prepare a bulk sample liquid of 1,000 µg/ml. The bulk was diluted into a series of 2-fold dilutions using sterilized distilled water.
(§2) Separately, the bacterial cell suspensions for the test shown in Table 18 were cultured in Mueller-Hinton broth (DIFCO) at 37°C for 18-20 hours in advance. They were controlled to have a bacterial amount of 10^6 CFU/ml by use of Mueller-Hinton broth. The thus-controlled liquids were inoculated to a Muller-Hinton agar plate containing the sample, followed by culturing at 37°C for 18 hours. The concentration at which bacterial growth was no longer observed was taken as the MIC.

Another data set has as its system Staphylococcus aureus. Described as above. It is filed as cell-based. The note with it: 18 h. Here is the method:
as §1, §2

The test system of data set [4] is various bacterial strains. Briefly: MIC by microliquid dilution method (Example 10, Table 45). It is filed as cell-based. Here is the method: Through use of a ketonitrile derivative of the present invention (Compound No. 4) as a sample, minimum inhibitory concentrations (MIC) of respective bacterial strains were determined by a microliquid dilution method in accordance with the standard procedure authorized by Japan Chemotherapy Association ["Chemotherapy", 29, 76-79, 1981, under the heading "Revised Measurement of Minimum Inhibitory Concentration (MIC)"]. The samples were dissolved in dimethylsulfoxide and diluted with the same amount of sterilized distilled water to prepare a bulk sample liquid of 1,000 µg/ml. The bulk sample was cultured in Mueller-Hinton broth at 37°C for 18 hours.

On to `CC(Oc1ccc(Oc2ncc(C(F)(F)F)cc2Cl)cc1)C(=O)C(C#N)c1ccc(Cl)c(Cl)c1` (stereo not drawn) [Compound No. 4, 4-[4-(3-chloro-5-trifluoromethyl-2-pyridyloxy)phenoxy]-2-(3,4-dichlorophenyl)-3-oxopentanonitrile], for which the 50% lethal dose (LD50) (as a rule, the dose expected to kill half of the subjects tested) at 336 h in the data set “in vivo” is > 2000 mg/kg. In addition, the minimum inhibitory concentration (MIC) (in general, the least concentration at which growth counts as inhibited) in data set [1] was ≤ 1 µg/mL; in data set [2], ≤ 1 µg/mL; in data set [3], 10 to 100 µg/mL (≈ 18.9 to 189 µM); in the data set on Pasteurella from cattle (Pasteurella Multosida 1F-17, origin Cattle), 1.56 µg/mL (≈ 2.94 µM); with Pasteurella from cattle (Pasteurella haemolytica 1F-15, origin Cattle) it was 6.25 µg/mL (≈ 11.8 µM); with Staphylococcus aureus (209P, Staphylococcus aureus 209P, origin Standard strain), 1.56 µg/mL (≈ 2.94 µM). For the same molecule, the MIC amounted to 3.13 µg/mL (≈ 5.91 µM) against Staphylococcus aureus (Staphylococcus aureus 1SS1, origin Chicken); 3.13 µg/mL (≈ 5.91 µM) in the data set with Staphylococcus aureus (Staphylococcus aureus 3-2, origin Pig); 6.25 µg/mL (≈ 11.8 µM) against Staphylococcus aureus (Staphylococcus aureus TI-1, origin Cattle); 3.13 µg/mL (≈ 5.91 µM) in data set [4] (18 h, Staphylococcus aureus SMITH, read-out: MIC); 6.25 µg/mL (≈ 11.8 µM) in data set [4] (18 h, Staphylococcus epidermis 56556, read-out: MIC); 12.5 µg/mL (≈ 23.6 µM) in data set [4] (18 h, Streptococcus mitis 11D 685, read-out: MIC). Moreover, the minimal inhibitory concentration (MIC) came out at 6.25 µg/mL (≈ 11.8 µM) in data set [4] (18 h, Streptococcus pyogenes G-36, read-out: MIC); 3.13 µg/mL (≈ 5.91 µM) in data set [4] (ATCC6633, 18 h, Bacillus subtilis ATCC 6633, read-out: MIC); 6.25 µg/mL (≈ 11.8 µM) in data set [4] (ATCC19433, 18 h, Enterococcus faecalis ATCC 19433, read-out: MIC); 3.13 µg/mL (≈ 5.91 µM) in data set [4] (Staphylococcus aureus M5-1 (Methicillin-resistant Staphylococcus aureus)); 3.13 µg/mL (≈ 5.91 µM) in data set [4] (Staphylococcus aureus M5-2 (Methicillin-resistant Staphylococcus aureus)).
